Experimental data: patent US12721823B2, “Methods and compositions for treatment of low circulating testosterone conditions” (University of Florida Research Foundation, Inc., priority 2021, dated 2026)

Tests used:
[1] = test system: Sprague-Dawley rats; experiment: Basal and stress-induced (restraint) serum corticosterone, HPA axis activity; format: in vivo, rat; details: for serum levels of corticosterone before and after physical restraint: all experimental groups
Text: Sixty-four G1 rats (32 control and 32 sevoflurane exposed) and 122 G2 rats, which were not exposed to sevoflurane anesthesia and were subjected to animal facility rearing only, were studied. The G1 rats were sequentially evaluated in the EPM starting on ~[…], PPI of the acoustic startle response on ~[…] and MWM starting ~on […] (FIG. 1). One half of these animals were sacrificed on ≥[…] to collect trunk blood, brain and testis and ovarian tissues for further analyses. The rest of these animals were physically restrained for 30 min on ≥[…] to measure corticosterone responses, followed by collection of tissue samples (as above) for further analyses. The G2 rats were evaluated in the EPM starting on P60 and PPI of startle on P70 (FIG. 1). One half of these animals were sacrificed on ≥[…] to collect trunk blood and brain tissue samples for further analyses, and the rest of these animals were tested for the corticosterone responses to physical restraint for 30 min on ≥[…] before collecting the trunk blood and brain tissue samples. Blood samples (~300 μl) were collected using the “tail clip” method at rest and 10, 60, and 120 min after the restraint. Physical restraint was administered using rodent holders (Kent scientific Corporation, Torrington, CT). Serum corticosterone was measured using commercial ELISA kits (Cayman Chemical Company, Ann Arbor, MI, USA) according to the manufacturer's instructions.

[2] = test system: KCC2; experiment: Immunofluorescence of cell surface KCC2 expression in the PVN of the hypothalamus; format: in vivo, rat; details: G1 male rats; 1 h after last exposure on P60; vs control
Protocol: Rats were anesthetized with sevoflurane and transcardially perfused with saline, followed by 4% paraformaldehyde (PFA) in 0.1 M phosphate buffer. The brains were collected and fixed in the 4% PFA overnight and then dehydrated in 30% sucrose solution in PBS at 4° C. for 2 days. The brains were cut into 18-um-thick coronal sections using a cryostat. After blocking with 10% norm goat serum for 1 h at room temperature, the slices were incubated with the primary antibody (rabbit anti-KCC2, 1:500; MilliporeSigma, Burlington, MA) in 10% norm goat serum at 4° C. overnight. After washing with PBS for 3×5 min, the slices were exposed to the secondary antibody, Alexafluor 549 goat anti-rabbit (Invitrogen, Carlsbad, CA). […] The immunofluorescence intensity of the KCC2-immunoreactive cells was measured using ImageJ software [National Institutes of Health (NIH)]. Three images from the PVN of the hypothalamus of each animal were taken and the average intensity values were calculated to use for statistical analysis. […] (FIGS. 2C-2F) Representative confocal images and quantitative analysis of the KCC2 immunoreactivity in the paraventricular nucleus (PVN) of the hypothalamus of the control and sevoflurane-exposed male (FIGS. 2C, 2E) and female (FIGS. 2D, 2F) rats. […]

FCOC(C(F)(F)F)C(F)(F)F [sevoflurane, 1,1,1,3,3,3-hexafluoro-2-(fluoromethoxy)propane]
serum corticosterone levels ([1]; G1 female rats, before and after restraint, vs control): no difference | serum corticosterone ([1]; G1 male rats, 10 min after restraint, vs control): higher levels | total corticosterone responses (AUCg) ([1]; G1 male rats, 30 min restraint on ≥P160, vs control): significantly higher | serum corticosterone ([1]; G1 male rats, 60 min after restraint, vs control): higher levels | serum corticosterone ([1]; G1 male rats, 120 min post restraint, vs control): not different | serum corticosterone ([1]; G1 male rats, before the restraint, vs control): not different | serum levels of corticosterone before and after physical restraint ([1]; G2 female rats): no differences | serum levels of corticosterone before and after physical restraint ([1]; G2 male rats): no differences | cell surface KCC2 expression (KCC2 density) in the PVN of the hypothalamus [2]: reductions in KCC2 density
